Legend:
[1] = system: A375 human melanoma cells; assay: In vivo inhibition of tumor growth (A375 in athymic mice); parameters: species or system mouse; conditions: A375 cells s.c. in male athymic mice, intraperitoneally once a day for 30 days, 50 mg/Kg and 5 mg/Kg (FIG. 1)
From the text: The in vivo effect of a compound on the growth of human tumor cells can be evaluated by implanting human tumor cells into the hindflank of athymic mice and administering test compound to the mice. Such assays are useful in identifying and confirming compounds that are useful for inhibiting angiogenesis or to identify compounds that can inhibit VEGF activity and therefor are useful for treating a variety of cancers or other diseases associated with abnormal or aberrant angiogenesis, such as those diseases discussed supra. Human tumor cells originating from a variety of different cancer types, such as A375 human melanoma cells, were implanted subcutaneously into the hindflank of male athymic mice (Charles River) and allowed to establish a sizeable tumor for 6-10 days as determined by caliper measurements. Test compound was then administered by injecting the compound formulated in an appropriate vehicle, here saline was used as the vehicle, intraperitoneally into the mice once a day for 30 days. The test compound can also be administered by other routes such as orally, sub cutaneously or by intravenous infusion. The size of the tumor in this study was measured every four days and the degree of inhibition was determined by comparing drug-treated animals to animals that were injected with vehicle only. […]

[2] = system: rat aortic ring; assay: Rat aortic ring assay (vascular sprouting); type: cell-based; conditions: 192 h; rat aortic ring in fibrin gel, analyzed on day 8; read-out: Inhibition of Vascular Sprouting (IC50μM)
Method: The rat aortic ring assay is a rapid in vitro assay that measures new capillary growth in an environment that closely approximates the in vivo conditions of the extracellular matrix. The assay was performed as described (Nicosia, R F and Ottinetti, A. Growth of new microvessels in serum-free matrix culture of rat aorta. Lab Invest., 63: 115-122, 1990). Thoracic aortas were removed from 1 to 2-month old male Sprague-Dawley rats and transferred to a culture dish containing serum-free MCDB 131 medium (Clonetics). Extraneous tissue was removed and the aorta was sectioned into rings approximately 1 mm long and rinsed 8-10 times in serum-free medium. A solution of sterile 1.5% agarose (Type VI-A, Sigma, St. Louis, Mo.) was added to the wells of a 6-well plate. The wells were filled with clotting fibrinogen solution and an aortic ring was transferred into the well positioned with the lumen oriented horizontally in the center of the fibrin gel solution. The fibrinogen solution was prepared in MCDB 131 medium with bovine fibrinogen at 3 mg/ml. Clotting was initiated by adding 20 μl of a 50 NIH units/ml bovine thrombin solution and the fibrin gel generally formed within 30 seconds. The fibrinolytic inhibitor amino-n-caproic acid was added to the culture medium at 300 µg/ml (microgram per milliliter) for the first four days of the assay and at 50 μg/ml from day 5 to day 8. Once the fibrin gel solution solidified, 5 ml of serum-free MCDB 131 media containing 100 μg/ml penicillin, 100 μg/ml streptomycin and 0.25 μg/ml amphotericin B was added to each well. Explants were incubated at 37° C. with 5% CO2 for 8 days. Medium was replaced every 2-3 days and the assay was analyzed on day 8. Inhibition of vascular sprouting was measured by adding test compounds diluted in DMSO.

[3] = system: HCT-116 colon carcinoma; assay: Cell proliferation assay (14C-thymidine incorporation), HCT-116; type: cell-based; conditions: Homo sapiens, read-out: Inhibition of cell proliferation IC50
Method: (§1) The ability of a test compound to inhibit the proliferation of cell growth was determined by measuring incorporation of ^14C-labelled thymidine into newly synthesized DNA within the cells. This method was used on cell lines derived from carcinomas originating from several tissues such as HeLa cervical adenocarcinoma (American Type Culture Collection (ATCC), Virginia, Cat. #CCL-2), A375 malignant melanoma (ATCC CRL-1619), SK-OV-3 ovarian adenocarcinoma (ATCC HTB-77) HCT-116 colon carcinoma (CCL-247) and PC-3 prostate adenocarcinoma (ATCC CRL-1435). The method was also used on primary cells such as HUVEC endothelial cells (ATCC CRL-1730). In this way the effect of a compound on cell growth of cells with many different phenotypes can be determined. Cells were trypsinized and counted and 3000-8000 cells were added to each well of a 96-well CytoStar tissue culture treated scintillating microplate (Amersham #RPNQ0160) in complete medium in a volume of 100 μl. Cells were incubated for 24 hours in complete medium at 37° C. in an atmosphere containing 5% CO2.
(§2) Next, 1 μl of test compound in 100% DMSO was added to the wells of the plate. DMSO only was added to control wells. Cells were incubated for 24 more hours in complete medium at 37° C. in an atmosphere containing 5% CO2. Methyl ^14C-thymidine 56 mCi/mmol (NEN #NEC568 or Amersham #CFA532) was diluted in complete medium and 0.2 μCi/well was added to each well of the CytoStar plate in a volume of 20 μl. The plate was incubated for 24 hours at 37° C. plus 5% CO2 in drug plus ^14C-thymidine. The contents of the plate were discarded into a ^14C radioactive waste container by inverting the plate and the plate was washed twice with 200 μl PBS. 200 μl of PBS is then added to each well. The top of the plate was sealed with a transparent plate sealer and a white plate backing sealer (Packard #6005199) was applied to the bottom of the plate. The degree of Methyl ^14C-thymidine incorporation was quantified on a Packard Top Count.

[4] = system: PC-3 prostate adenocarcinoma; assay: Cell proliferation assay (14C-thymidine incorporation), PC-3; type: cell-based; conditions: Homo sapiens, read-out: Inhibition of cell proliferation IC50
Method: as §1, §2

[5] = system: MDA-MB-231; assay: Cell proliferation assay (14C-thymidine incorporation), MDA-MB-231; type: cell-based; conditions: Homo sapiens, read-out: Inhibition of cell proliferation IC50
Method: as §1, §2

IC50 [2]: > 1 µM
IC50 [3]: > 100 µM
IC50 [4]: 22.9 µM
IC50 [5]: 12.7 µM
SMILES: CN(C)CCNc1cncc(-c2cncc(Nc3cccc(Cl)c3)n2)c1 [Cmd 33, N′-[5-[6-[(3-chlorophenyl)amino]pyrazinyl]-3-pyridinyl]-N^2,N^2-dimethyl-1,2-ethanediamine]
tumor growth delay (tumor size) [1]: delay of tumor size progression
tumor growth delay (tumor size) ([1]; listed as compound 33): tumor growth delay

— patent US6710048B2, “Pyrazine derivatives as modulators of tyrosine kinases” (Ortho-McNeil Pharmaceutical, Inc., priority 2000, dated 2004)
